The values below come from ChEMBL document CHEMBL1130033, “17 beta-(3-furyl)-5 beta-androstane-3 beta, 14 beta, 17 alpha-triol (PST 2238). A very potent antihypertensive agent with a novel mechanism of action” (J Med Chem, 1997).

The test has as its target Sodium/potassium-transporting ATPase. Nature of the test: Ability to displace [3H]ouabain from Na+/K+ ATPase in dog kidney. Type of test: protein-complex assay, Canis lupus familiaris.

With `C[C@]12CC[C@H](O)C[C@H]1CC[C@@H]1[C@@H]2CC[C@]2(C)[C@@](O)(c3ccoc3)CC[C@]12O` [ROSTAFUROXIN], the IC50 came out at 1500 nM. This lies in the single-digit micromolar range.
